Source: patent US20240199555A1, “APPLICATIONS OF BIASED LIGANDS OF THE SEROTONIN 5-HT7 RECEPTOR FOR THE TREATMENT OF PAIN, MULTIPLE SCLEROSIS AND THE CONTROL OF THERMOREGULATION” (Centre National de la Recherche Scientifique, priority 2021, published 2024)

Assays:
[1] = biological target: 5-HT7R / β-arrestin2 (Homo sapiens (Human), UniProt P34969); assay: β-arrestin 2 BRET in HEK-293 cells transfected with 5-HT7R; type: cell-based; details: wild type 5-HT7R, intramolecular biosensor
Protocol: FIG. 8: Serodolin-induced ERK phosphorylation is dependent on β-arrestin 2 recruitment. (A) HEK-293 or KO β-arrestin HEK-293 cells were transiently transfected with HA-5-HT7R and stimulated with 5-CT (10 μM), Serodolin (10 μM) or Vehicle (0.1% DMSO diluted in PBS solution) used as a control for 7 min. Representative blots of three independent experiments are illustrated. (B) Quantification of p-ERK and p-c-SRC were performed using Alphascreen technology. Data are means±SEM of values obtained in three independent experiments. (C) HEK-293 cells were transiently transfected with HA-h5-HT7R with β-arrestin2 BRET biosensor (Rluc-Arrestin-YPET), then incubated with increasing doses of 5-CT, or Serodolin (10^-11 to 10^-5 M). Ligand mediated BRET changes are expressed as induced BRET changes which were generated by subtracting at each point the signal of the cells incubated with PBS (without ligand). Data were fitted using non-linear regression using GraphPad Prism software. […]
The inventors then investigated whether the Serodolin-induced β-arrestin recruitement using BRET experiments. […] After transfection of 5-HT7R-RLuc and arrestin2-YFP used as a BRET pair, the inventors evaluated the ability of 5-HT7R ligands to recruit β-arrestin. […]

[2] = system: mouse; assay: Effect on body temperature; type: in vivo; details: intravenous
Excerpt: FIG. 13: Evaluation of the effect of Serodolin on body temperature.
FIG. 17: Evaluation of the effect of MOA51 on body temperature. Results expressed in ° C.
The time course of the effect of Serodolin on the body temperature has been evaluated in the mouse following intravenous administration.

[3] = system: Sprague-Dawley male rats; assay: Formalin induced inflammatory pain model; type: in vivo; details: single s.c., Serodolin 10 mg/kg, MOA51 1 mg/kg, morphine
Protocol: FIG. 18: Effect of a single administration of Serodolin (AIC01) or MOA51 in the formalin test in rats. Effect of a single subcutaneous administration of Serodolin (AIC01) or MOA51 in the formalin test in rats. In this test, Sprague-Dawley male rats received unilateral injection of a 2.5% formalin solution (50 μl) into the plantar aspect of the hindpaw on testing day (i.e. D0). Control group received Vehicle (20% DMSO/5% Tween 80/NaCl). Serodolin was subcutaneously (sc) administrated at 10 mg/kg and MOA51 at 1 mg/kg. Positive control animals were treated with morphine (3 mg/kg, sc). Paw licking time was measured. Results are expressed as mean±s.e.m. Percentage are expressed as decreased as compared to the vehicle-treated group and represented as figure (B). ***: p<0.001 as compared to the vehicle-treated group, Bonferroni's test after significant Two-way Repeated Measures ANOVA. NS: Non-significant.
Sprague-Dawley male rats (n=10 rats per group) received unilateral injection of a 2.5% formalin solution (50 μl) into the plantar aspect of the hindpaw on testing day (i.e. D0). Experience was separated into 4 groups of animals. Formalin animals+vehicle-treated group; […]—Formalin animals+Sponsor's Serodolin (10 mg/kg), s.c.—Formalin animals+Sponsor's MOA51 (1 mg/kg), s.c.—Formalin animals+internal validator-treated group (Morphine at 4 mg/Kg, s.c.). Single subcutaneous administration of the Vehicle and Sponsor's Compound 30 min (or other timing depending on Sponsor's design) before formalin injection on testing day (i.e. D0)/Subcutaneous administration of Morphine 30 min before formalin injection on testing day (i.e. D0). Hindpaw licking time recorded in consecutive 5 minutes periods from 0 to 5 minutes (early phase) and 17 to 27 minutes (late phase) after formalin injection.
We evaluated the effect of Serodolin as well as MOA51 in rats in the formalin test, an acute and tonic pain model based on the use of a chemical stimulus. Subcutaneous injection of formalin into the right hindpaw produces a biphasic painful response of increasing and decreasing intensity for about 30 minutes after the injection. […] Although not significant, Serodolin, MOA51 and morphine have an inhibitory effect (−40%, −35% and −57% respectively) during the early phase.

5-HT7R / β-arrestin2, sequence (P34969 1-432): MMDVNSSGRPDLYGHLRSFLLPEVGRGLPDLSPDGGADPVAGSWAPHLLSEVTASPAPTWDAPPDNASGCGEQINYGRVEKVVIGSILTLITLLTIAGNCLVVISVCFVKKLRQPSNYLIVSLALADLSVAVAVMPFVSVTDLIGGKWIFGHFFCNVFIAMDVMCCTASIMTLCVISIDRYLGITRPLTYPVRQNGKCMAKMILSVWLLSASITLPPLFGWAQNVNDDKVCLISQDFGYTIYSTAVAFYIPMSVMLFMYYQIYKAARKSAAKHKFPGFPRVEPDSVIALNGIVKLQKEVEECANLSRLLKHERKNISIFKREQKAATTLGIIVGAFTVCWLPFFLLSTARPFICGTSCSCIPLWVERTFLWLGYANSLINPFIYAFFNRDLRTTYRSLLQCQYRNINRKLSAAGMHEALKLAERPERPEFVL

SMILES: O=c1[nH]c2ccccc2n1CN1CCN(c2ccc(F)cc2)CC1 [Serodolin]
- BRET signal of RLuc-arrestin2-YPET biosensor [1]: concentration-dependent increase of BRET signal
- decrease in body temperature, Emax ([2]; 1 mg/kg, at 30 min): −2.9 °C
- decrease in body temperature, Emax ([2]; 3 mg/kg, at 30 min): −3.6 °C
- decrease in body temperature, Emax ([2]; 10 mg/kg, at 60 min): −7.9 °C
- inhibitory effect on paw licking, early phase ([3]; 0 to 5 minutes, not significant): −40%
- inhibition of licking, late phase ([3]; 17 to 27 minutes): −80%
